For orientation: IC50 means the concentration that inhibits the measured activity by half. Read a high IC50 as weaker potency in that assay.

Drawing on ChEMBL document CHEMBL5465560, “Selectivity Literature for EUbOPEN Chemogenomic Library” (2024), this text covers % of control, % of inhibition and IC50 for eight compounds.

Assay [1] deals with Activin receptor type-2B (Homo sapiens) (UniProt Q13705). Conditions: at 10 µM.
In assay [2] the target is Fibroblast growth factor receptor 3 (Homo sapiens, UniProt P22607). As to the kind of experiment: (§1) Selectivity interaction (KinomeScan (DiscoverX)) EUB0000699a FGFR3. To be noted: at 10 µM.
In assay [3] the test system is Fibroblast growth factor receptor 3 (Homo sapiens), P22607 [G697C]. The assay is described as §1. To be noted: at 10 µM.
For assay [4], the target named is T1, Bone morphogenetic protein receptor type-2 (Homo sapiens) (UniProt Q13873).
T1 sequence (whole entry): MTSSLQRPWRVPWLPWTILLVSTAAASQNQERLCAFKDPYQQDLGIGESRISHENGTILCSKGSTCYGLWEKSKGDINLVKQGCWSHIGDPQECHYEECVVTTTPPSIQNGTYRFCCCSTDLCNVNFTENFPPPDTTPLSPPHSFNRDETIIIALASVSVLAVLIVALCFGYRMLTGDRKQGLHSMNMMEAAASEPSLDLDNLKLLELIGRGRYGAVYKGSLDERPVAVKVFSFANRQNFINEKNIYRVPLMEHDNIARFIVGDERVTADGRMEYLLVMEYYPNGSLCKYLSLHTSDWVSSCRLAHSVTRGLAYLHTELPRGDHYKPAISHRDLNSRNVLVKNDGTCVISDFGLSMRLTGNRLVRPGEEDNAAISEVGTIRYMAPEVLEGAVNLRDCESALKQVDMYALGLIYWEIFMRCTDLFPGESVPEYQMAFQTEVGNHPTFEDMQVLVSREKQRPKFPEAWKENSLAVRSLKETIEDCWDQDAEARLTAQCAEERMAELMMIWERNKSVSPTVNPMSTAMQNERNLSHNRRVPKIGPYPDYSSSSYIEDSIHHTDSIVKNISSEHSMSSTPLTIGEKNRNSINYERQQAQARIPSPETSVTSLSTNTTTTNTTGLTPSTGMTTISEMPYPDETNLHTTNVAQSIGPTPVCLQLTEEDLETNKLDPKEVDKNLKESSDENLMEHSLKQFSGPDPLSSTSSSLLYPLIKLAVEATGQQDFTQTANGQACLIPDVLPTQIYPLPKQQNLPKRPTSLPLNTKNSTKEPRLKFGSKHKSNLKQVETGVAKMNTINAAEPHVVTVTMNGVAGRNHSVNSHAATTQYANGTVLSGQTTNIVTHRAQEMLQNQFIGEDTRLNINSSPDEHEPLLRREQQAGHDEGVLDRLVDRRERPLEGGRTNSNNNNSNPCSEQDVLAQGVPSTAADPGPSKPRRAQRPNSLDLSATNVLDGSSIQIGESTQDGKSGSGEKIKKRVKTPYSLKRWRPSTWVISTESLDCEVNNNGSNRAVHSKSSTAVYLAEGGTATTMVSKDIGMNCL
As to the kind of experiment: Selectivity interaction (KinomeScan (DiscoverX)) EUB0001049a BMPR2. Conditions: at 1 µM.

Assay [5] has as its target T2, Rhodopsin kinase GRK7 (Homo sapiens) (UniProt Q8WTQ7).
T2 sequence (whole entry): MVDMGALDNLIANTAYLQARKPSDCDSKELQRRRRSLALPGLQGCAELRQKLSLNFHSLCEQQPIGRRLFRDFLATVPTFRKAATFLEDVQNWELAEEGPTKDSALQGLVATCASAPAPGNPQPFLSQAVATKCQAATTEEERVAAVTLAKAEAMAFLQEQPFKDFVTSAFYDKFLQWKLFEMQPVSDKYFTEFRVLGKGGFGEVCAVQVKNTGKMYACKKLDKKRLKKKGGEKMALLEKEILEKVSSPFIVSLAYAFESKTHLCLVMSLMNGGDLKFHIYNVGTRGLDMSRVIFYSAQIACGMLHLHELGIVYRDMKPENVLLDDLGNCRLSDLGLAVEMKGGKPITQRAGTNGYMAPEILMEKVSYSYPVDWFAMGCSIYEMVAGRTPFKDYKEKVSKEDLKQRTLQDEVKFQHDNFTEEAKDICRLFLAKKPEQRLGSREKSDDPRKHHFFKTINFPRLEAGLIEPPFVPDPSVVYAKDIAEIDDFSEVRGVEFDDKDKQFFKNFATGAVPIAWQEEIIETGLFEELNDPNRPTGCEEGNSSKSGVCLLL
Briefly: Selectivity interaction (KinomeScan (DiscoverX)) EUB0000695a GRK7. Conditions: at 100 nM.

Assay [6] deals with Serine/threonine-protein kinase 24 (Homo sapiens) (UniProt Q9Y6E0). As to the kind of experiment: Selectivity interaction (SelectScreen profiling (Invitrogen)) EUB0000607a STK24. Conditions: at 2 µM.
The target in assay [7] is Proto-oncogene tyrosine-protein kinase Src (Homo sapiens, UniProt P12931). Briefly: Selectivity interaction (SelectScreen profiling (Invitrogen)) EUB0000607a SRC. To be noted: at 2 µM.
For assay [8], the target named is Eukaryotic translation initiation factor 2-alpha kinase 3 (Homo sapiens, UniProt Q9NZJ5).
The target of assay [9] is Serine/threonine-protein kinase PLK2 (Homo sapiens, UniProt Q9NYY3).
In assay [10] the target is T3, Mitogen-activated protein kinase kinase kinase kinase 2 (Homo sapiens) (UniProt Q12851).
T3 sequence (whole entry): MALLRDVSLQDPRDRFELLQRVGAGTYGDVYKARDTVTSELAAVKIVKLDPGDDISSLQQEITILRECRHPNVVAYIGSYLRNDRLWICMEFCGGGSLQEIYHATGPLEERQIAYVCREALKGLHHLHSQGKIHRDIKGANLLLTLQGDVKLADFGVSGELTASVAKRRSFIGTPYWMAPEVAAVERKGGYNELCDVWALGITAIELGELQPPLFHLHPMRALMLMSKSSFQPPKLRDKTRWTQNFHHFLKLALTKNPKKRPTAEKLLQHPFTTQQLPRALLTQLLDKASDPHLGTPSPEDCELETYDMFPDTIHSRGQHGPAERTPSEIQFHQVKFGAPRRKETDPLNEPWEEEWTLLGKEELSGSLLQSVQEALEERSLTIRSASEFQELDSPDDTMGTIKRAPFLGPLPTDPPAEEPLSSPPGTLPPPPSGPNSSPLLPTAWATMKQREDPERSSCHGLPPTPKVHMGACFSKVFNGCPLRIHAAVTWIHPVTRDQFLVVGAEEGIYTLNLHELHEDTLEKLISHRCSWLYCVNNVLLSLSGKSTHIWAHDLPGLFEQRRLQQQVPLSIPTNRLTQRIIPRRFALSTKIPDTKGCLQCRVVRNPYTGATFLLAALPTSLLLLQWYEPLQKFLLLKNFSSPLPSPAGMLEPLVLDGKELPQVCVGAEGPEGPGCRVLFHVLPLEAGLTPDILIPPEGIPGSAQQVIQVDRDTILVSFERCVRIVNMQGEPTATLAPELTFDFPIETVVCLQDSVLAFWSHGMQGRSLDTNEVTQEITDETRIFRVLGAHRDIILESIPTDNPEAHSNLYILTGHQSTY
As to the kind of experiment: Selectivity interaction (KinomeScan (DiscoverX)) EUB0000595a MAP4K2. Conditions: at 10 µM.

Assay [11] concerns the target Wee1-like protein kinase 2 (Homo sapiens) (UniProt P0C1S8). Briefly: Selectivity interaction (KinomeScan (DiscoverX)) EUB0001619a WEE2. To be noted: at 1 µM.

Structures are written as SMILES. A value given as a limit tells only on which side of the number the result lay.

Eukaryotic translation initiation factor 2-alpha kinase 3, sequence (Q9NZJ5 whole entry): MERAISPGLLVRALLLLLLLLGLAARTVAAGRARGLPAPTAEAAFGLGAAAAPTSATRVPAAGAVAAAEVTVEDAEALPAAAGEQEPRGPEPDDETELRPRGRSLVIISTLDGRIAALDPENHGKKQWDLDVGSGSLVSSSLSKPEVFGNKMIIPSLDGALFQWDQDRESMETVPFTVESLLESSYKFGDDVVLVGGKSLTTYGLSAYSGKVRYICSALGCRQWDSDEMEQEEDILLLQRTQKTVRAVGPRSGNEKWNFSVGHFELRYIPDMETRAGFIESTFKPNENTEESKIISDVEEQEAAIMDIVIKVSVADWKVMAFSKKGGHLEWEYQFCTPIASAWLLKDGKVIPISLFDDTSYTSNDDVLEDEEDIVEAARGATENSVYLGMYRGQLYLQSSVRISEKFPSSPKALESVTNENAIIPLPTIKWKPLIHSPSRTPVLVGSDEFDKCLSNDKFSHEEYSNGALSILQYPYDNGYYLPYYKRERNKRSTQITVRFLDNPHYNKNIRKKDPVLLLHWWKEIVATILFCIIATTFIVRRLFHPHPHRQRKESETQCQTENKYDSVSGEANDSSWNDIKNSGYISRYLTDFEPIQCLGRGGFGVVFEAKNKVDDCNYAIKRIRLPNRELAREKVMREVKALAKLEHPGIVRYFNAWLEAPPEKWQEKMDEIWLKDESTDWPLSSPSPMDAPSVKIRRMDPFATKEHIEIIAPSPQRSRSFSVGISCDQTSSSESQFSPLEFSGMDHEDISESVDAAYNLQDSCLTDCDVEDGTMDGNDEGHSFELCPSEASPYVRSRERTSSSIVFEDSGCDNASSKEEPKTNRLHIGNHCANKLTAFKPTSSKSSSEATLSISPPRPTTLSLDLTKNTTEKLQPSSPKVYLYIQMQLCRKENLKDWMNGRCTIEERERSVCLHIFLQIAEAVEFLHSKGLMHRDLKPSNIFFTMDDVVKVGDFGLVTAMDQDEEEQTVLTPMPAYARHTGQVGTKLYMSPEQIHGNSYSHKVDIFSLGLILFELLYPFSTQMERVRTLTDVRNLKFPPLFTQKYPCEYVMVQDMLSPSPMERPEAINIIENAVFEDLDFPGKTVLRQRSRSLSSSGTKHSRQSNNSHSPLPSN
Fibroblast growth factor receptor 3, sequence (P22607 23-806 limits assumed): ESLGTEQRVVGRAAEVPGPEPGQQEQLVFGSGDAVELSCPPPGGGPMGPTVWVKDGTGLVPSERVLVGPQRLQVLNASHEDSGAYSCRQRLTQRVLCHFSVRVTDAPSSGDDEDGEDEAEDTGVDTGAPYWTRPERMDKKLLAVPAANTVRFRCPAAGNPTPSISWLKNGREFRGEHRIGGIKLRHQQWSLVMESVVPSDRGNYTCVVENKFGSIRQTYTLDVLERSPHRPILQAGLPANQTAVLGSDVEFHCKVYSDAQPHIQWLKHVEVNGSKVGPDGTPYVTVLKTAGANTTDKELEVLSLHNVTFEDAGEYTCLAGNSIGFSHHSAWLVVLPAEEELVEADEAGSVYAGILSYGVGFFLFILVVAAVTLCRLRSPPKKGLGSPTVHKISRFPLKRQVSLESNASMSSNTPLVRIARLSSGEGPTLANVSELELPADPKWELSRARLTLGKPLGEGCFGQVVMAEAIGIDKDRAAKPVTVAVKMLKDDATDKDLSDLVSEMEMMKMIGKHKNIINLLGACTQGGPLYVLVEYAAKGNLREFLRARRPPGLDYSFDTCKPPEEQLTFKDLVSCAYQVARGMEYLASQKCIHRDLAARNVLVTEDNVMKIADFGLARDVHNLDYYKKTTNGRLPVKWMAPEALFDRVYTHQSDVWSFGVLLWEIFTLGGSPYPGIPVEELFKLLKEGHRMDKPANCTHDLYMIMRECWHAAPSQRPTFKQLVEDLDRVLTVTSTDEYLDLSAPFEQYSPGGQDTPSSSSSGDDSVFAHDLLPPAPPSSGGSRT
Activin receptor type-2B (Homo sapiens), sequence (Q13705 whole entry): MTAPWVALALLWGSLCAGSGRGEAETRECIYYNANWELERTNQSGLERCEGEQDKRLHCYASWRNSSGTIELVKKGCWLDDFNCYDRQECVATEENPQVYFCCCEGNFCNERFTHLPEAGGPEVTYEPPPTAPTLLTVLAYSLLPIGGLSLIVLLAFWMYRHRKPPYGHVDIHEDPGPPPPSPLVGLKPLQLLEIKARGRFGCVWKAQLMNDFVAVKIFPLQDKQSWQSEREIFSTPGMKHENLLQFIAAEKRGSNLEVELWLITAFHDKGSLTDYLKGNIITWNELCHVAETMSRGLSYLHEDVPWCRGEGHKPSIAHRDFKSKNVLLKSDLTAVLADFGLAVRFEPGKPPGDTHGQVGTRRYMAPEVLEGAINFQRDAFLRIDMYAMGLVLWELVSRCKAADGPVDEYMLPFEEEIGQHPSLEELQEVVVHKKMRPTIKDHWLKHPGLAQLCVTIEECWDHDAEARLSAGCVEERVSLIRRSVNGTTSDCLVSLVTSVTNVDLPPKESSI
Proto-oncogene tyrosine-protein kinase Src, sequence (P12931 2-536 limits assumed): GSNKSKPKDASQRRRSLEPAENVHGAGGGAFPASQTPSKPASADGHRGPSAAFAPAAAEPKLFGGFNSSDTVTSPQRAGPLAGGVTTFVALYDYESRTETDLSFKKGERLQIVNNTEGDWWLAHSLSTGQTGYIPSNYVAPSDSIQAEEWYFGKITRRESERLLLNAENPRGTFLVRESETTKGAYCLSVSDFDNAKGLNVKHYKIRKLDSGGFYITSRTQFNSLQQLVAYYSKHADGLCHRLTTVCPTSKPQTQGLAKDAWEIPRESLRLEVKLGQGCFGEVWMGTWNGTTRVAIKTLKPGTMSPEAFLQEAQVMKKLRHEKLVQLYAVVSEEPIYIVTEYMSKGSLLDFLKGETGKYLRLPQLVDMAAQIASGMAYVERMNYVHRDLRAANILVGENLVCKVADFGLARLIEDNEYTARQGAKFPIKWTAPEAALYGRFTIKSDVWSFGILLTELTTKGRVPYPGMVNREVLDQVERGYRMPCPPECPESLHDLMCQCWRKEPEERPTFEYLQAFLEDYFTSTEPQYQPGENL
Wee1-like protein kinase 2 (Homo sapiens), sequence (P0C1S8 whole entry, looked up): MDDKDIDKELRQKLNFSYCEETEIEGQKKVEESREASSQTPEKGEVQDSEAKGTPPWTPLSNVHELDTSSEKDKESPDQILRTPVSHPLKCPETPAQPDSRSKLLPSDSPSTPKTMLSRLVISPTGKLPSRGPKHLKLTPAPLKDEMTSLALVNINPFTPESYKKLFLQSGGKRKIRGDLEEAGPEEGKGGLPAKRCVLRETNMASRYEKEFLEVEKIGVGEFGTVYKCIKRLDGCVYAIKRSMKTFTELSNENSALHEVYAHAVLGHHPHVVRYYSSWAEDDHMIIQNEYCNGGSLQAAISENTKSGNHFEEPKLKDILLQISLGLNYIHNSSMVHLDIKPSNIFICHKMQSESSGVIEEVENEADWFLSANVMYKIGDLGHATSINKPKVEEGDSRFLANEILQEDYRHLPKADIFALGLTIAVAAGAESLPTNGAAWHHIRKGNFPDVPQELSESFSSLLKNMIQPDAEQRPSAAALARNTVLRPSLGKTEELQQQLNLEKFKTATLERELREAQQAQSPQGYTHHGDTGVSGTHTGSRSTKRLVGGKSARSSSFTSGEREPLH
Fibroblast growth factor receptor 3 (Homo sapiens), P22607 [G697C], sequence (P22607 whole entry G697C): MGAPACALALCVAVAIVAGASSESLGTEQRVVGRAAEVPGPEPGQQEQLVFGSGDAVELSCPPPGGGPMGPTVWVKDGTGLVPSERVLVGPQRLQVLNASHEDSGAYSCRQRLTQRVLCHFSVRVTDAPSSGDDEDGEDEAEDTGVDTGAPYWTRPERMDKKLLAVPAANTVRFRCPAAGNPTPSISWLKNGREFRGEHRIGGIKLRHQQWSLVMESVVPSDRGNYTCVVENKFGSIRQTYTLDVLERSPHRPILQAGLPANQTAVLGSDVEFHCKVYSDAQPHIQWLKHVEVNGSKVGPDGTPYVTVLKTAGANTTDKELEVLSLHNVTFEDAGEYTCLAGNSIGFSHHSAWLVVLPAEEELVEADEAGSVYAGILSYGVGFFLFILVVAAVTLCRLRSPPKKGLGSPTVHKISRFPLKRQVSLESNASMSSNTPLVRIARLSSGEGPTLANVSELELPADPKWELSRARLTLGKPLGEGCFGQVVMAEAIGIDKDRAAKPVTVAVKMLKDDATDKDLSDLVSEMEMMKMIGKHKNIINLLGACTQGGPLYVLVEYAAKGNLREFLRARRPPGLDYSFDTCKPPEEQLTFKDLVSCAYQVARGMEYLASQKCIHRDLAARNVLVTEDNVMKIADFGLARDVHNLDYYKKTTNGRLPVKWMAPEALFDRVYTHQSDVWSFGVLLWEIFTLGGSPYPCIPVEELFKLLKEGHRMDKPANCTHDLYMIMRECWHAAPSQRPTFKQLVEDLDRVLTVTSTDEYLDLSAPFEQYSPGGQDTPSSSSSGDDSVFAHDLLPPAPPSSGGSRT
Serine/threonine-protein kinase PLK2, sequence (Q9NYY3 whole entry): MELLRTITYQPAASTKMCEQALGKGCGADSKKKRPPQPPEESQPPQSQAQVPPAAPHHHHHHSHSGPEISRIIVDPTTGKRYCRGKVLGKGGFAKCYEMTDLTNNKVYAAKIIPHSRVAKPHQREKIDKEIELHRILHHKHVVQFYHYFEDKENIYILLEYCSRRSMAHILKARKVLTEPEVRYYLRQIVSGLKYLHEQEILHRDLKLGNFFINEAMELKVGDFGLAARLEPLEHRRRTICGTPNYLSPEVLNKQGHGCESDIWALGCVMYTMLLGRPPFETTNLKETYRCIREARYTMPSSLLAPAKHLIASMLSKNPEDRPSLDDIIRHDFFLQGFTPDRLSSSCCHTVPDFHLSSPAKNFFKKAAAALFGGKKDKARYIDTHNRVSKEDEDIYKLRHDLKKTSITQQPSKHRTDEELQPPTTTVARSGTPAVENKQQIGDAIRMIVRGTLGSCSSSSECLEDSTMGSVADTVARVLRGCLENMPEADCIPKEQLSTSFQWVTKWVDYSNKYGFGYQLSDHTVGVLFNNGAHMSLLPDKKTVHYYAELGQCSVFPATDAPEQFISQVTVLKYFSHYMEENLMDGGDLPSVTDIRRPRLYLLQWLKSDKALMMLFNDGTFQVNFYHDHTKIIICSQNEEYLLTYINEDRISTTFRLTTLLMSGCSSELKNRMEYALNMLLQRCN

In [1], `Cc1cc([C@@H](C)Nc2ccccc2C(=O)O)c2nc(N3CCOCC3)cc(=O)n2c1` [AZD-6482] showed a % of control of 100%.

On to `CCN(CC)CCCCNc1ncc2cc(-c3cc(OC)cc(OC)c3)c(NC(=O)NC(C)(C)C)nc2n1`, for which the % of control in [2] turned out to be 0.1%; in [3] it was 3.7%.

In the case of `COc1cc(Nc2nc(C)cc(-c3cnn4nc(OC)ccc34)n2)cc(C(F)(F)F)c1`, the % of control in assay [4] stood at 100%.

Consider `Cc1cc(F)c(C(=O)Nc2cccc(-c3nncn3C(C)C)n2)cc1-n1cnc(C2CC2)c1`, for which the % of control in [5] worked out at 97%.

In the case of `CNC(=O)Nc1ccc(-c2nc(N3CC4CCC(C3)O4)c3cnn(C4CCC5(CC4)OCCO5)c3n2)cc1`, the results for the % of inhibition in assay [6] and in [7] were -1% and 7%, respectively.

On to `CCc1cccc(CC)c1NC(=O)c1nn(C)c2c1CCc1cnc(Nc3ccc(C(=O)NC4CCN(C)CC4)cc3OC(F)(F)F)nc1-2`, for which the IC50 in assay [8] and in assay [9] was more than 10 µM in each case.

In assay [10], `COCC(=O)NC/C=C/c1ccc2ncnc(Nc3ccc(Oc4ccc(C)nc4)c(C)c3)c2c1` [CP-724714] came in with a % of control of 100%.

On to `N#Cc1cccc(-c2c[nH]c3ncnc(N4CCOCC4)c23)c1`, for which the % of control in assay [11] came to 96%.
